In patent publication US20170204092A1, “4,5-DIHYDROISOXAZOLE DERIVATIVES AS NAMPT INHIBITORS” (AURIGENE DISCOVERY TECHNOLOGIES LIMITED, priority 2014, published 2017):
Where two headings read alike, the source gives them in different places.

What was measured:
[1] = biological target: T1, recombinant NAMPT wild type protein (Homo sapiens, UniProt P43490); assay: NAMPT fluorescence assay; format: biochemical; conditions: 50 ng NAMPT, 2 μM Nam, 10 point dose response; read-out: Fluorescence assay IC50 in range
T1 construct: made in house; host or cells: E. coli
Protocol: The enzymatic assay was standardized using in-house recombinant NAMPT wild type protein from E. coli expression & NAM (Cat #47865-U) as a substrate. The product NMN formed after enzymatic reaction was derivatized to a fluorescent derivative through sequentially reacting with acetophenone/KOH and formic acid. The derivatized fluorescent NMN derivative was detected at 382 nm excitation wavelength and a 445 nm emission wavelength. […] The fluorescence was measured (Excitation at 382 nm & Emission at 445 nm) using Victor^3 V fluorimeter. The data is calculated using the RFU values. The final concentration of DMSO was 2% in the assay. Each individual IC50 was determined using 10 point dose response curve generated by GraphPad Prism software Version 4 (San Diego, Calif., USA) using nonlinear regression curve fit for sigmoidal dose response (variable slope).

MiaPaCa-2 cells = assay: Cytotoxicity assay in MiaPaCa-2 (XTT, 72 h); format: cell-based; conditions: for Cell cytotoxicity assay (% Inhibition at 1 μM) / Cell cytotoxicity assay (% Inhibition at 10 μM) / inhibition at 1 µM / inhibition at 10 µM: DMSO control = 0% inhibition; for IC50: XTT, read-out: Cell cytotoxicity assay IC50 in range; for inhibition at 1 µM: read-out: Cell cytotoxicity assay (% Inhibition at 1 μM); for inhibition at 10 µM: read-out: Cell cytotoxicity assay (% Inhibition at 10 μM)
Protocol: MiaPaCa-2 Cells (ATCC) were seeded in 96 well plates (Costar clear flat bottom) at a density of 3000 cells/well and allowed to settle overnight. Test compounds were dissolved in dimethyl sulphoxide (DMSO-Sigma Aldrich, D2650) and incubated with MiaPaCa-2 cells for 72 h. Post 72 h, 50 μl XTT (1 mg/mL; Invitrogen, X 6493) and PMS ([…]; Sigma Aldrich, P9625) reagents were added to the cells in 100 μl of cDMEM (Sigma Aldrich-D5648)+10% FBS (Hyclone-5430088-03)+1×Pen Strep (Sigma Aldrich-P0781). After 1 hour incubation with XTT and PMS absorbance was monitored with Spectramax M3 (Molecular Device). Percentage inhibition of proliferation at 10 μM and 1 μM concentrations was calculated by considering DMSO control as 0% inhibition. IC50 values were plotted using Graph pad prism software (Graph pad Inc, La Jola, Calif., USA).

T1 sequence (P43490 whole entry): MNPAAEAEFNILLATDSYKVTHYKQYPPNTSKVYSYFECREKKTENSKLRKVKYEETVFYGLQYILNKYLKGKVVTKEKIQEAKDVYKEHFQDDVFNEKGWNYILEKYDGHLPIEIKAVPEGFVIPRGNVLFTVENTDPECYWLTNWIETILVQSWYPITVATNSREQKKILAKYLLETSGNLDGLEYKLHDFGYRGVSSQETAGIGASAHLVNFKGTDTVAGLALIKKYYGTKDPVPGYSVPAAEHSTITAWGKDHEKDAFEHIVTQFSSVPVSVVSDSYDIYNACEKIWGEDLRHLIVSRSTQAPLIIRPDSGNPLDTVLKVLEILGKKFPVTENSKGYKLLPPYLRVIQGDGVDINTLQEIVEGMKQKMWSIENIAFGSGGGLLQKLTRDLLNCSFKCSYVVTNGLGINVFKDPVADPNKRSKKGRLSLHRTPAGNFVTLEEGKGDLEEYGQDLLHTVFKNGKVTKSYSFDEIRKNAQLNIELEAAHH

| IC50 [1] [nM] | Structure (SMILES) | Cell cytotoxicity assay (% Inhibition at 1 μM) (MiaPaCa-2 cells) [%] | Cell cytotoxicity assay (% Inhibition at 10 μM) (MiaPaCa-2 cells) [%] | IC50 (MiaPaCa-2 cells) [nM] | inhibition at 1 µM (MiaPaCa-2 cells; Homo sapiens, MIA PaCa-2, 72 h) [%] | inhibition at 10 µM (MiaPaCa-2 cells; Homo sapiens, MIA PaCa-2, 72 h) [%] | IC50 (MiaPaCa-2 cells; Homo sapiens, MIA PaCa-2, 72 h) [nM] |
| --- | --- | --- | --- | --- | --- | --- | --- |
| 10 to 25 | O=C(NCC1=NOC(COc2cc(Cl)cnc2-c2cccnc2)C1)c1ccc2nccn2c1 (single isomer, unassigned) [Example 13b, N-((5-(((5-chloro-[2,3′-bipyridin]-3-yl)oxy)methyl)-4,5-dihydroisoxazol-3-yl)methyl)imidazo[1,2-a]pyridine-6-carboxamide] | 100 | 100 | < 50 | – | – | – |
| 10 to 25 | Cc1ccc(OCC2CC(CNC(=O)c3ccc4nccn4c3)=NO2)c(-c2ccc(F)nc2)n1 (single isomer, unassigned) [Example 12a, N-((5-(((6′-fluoro-6-methyl-[2,3′-bipyridin]-3-yl)oxy)methyl)-4,5-dihydroisoxazol-3-yl)methyl)imidazo[1,2-a]pyridine-6-carboxamide] | 45 | – | > 250 | – | 96 | – |
| 10 to 25 | Cc1cnc(-c2ccc(F)nc2)c(OCC2CC(CNC(=O)c3ccc4nccn4c3)=NO2)c1 (single isomer, unassigned) [Example 11a, N-((5-(((6′-fluoro-5-methyl-[2,3′-bipyridin]-3-yl)oxy)methyl)-4,5-dihydroisoxazol-3-yl)methyl)imidazo[1,2-a]pyridine-6-carboxamide] | – | – | > 250 | 88 | 100 | – |
| < 10 | O=C(NCC1=NOC(COc2cc(Cl)cnc2-c2cccnc2)C1)c1ccc2nccn2c1 (racemic) [Example 13, N-((5-(((5-chloro-[2,3′-bipyridin]-3-yl)oxy)methyl)-4,5-dihydroisoxazol-3-yl)methyl)imidazo[1,2-a]pyridine-6-carboxamide] | – | – | – | 95 | 95 | 50 to 250 |
| > 25 | O=C(NCC1=NOC(COc2cccnc2-c2ccc(F)nc2)C1)Nc1ccnnc1 (racemic) [Example 18, 1-((5-(((6′-fluoro-[2,3′-bipyridin]-3-yl)oxy)methyl)-4,5-dihydroisoxazol-3-yl)methyl)-3-(pyridazin-4-yl)urea] | – | – | – | 90 | 89 | 50 to 250 |
| 10 to 25 | Cc1cc(NC(=O)NCC2=NOC(COc3cccnc3-c3cnn(C)c3)C2)ccn1 (racemic) [Example 19, 1-((5-(((2-(1-methyl-1H-pyrazol-4-yl)pyridin-3-yl)oxy)methyl)-4,5-dihydroisoxazol-3-yl)methyl)-3-(2-methylpyridin-4-yl)urea] | – | – | – | 17 | 82 | > 250 |
| > 25 | Cc1ccc(OCC2CC(CNC(=O)c3ccc4nccn4c3)=NO2)c(-c2ccc(F)nc2)n1 (racemic) [Example 12, N-((5-(((6′-fluoro-6-methyl-[2,3′-bipyridin]-3-yl)oxy)methyl)-4,5-dihydroisoxazol-3-yl)methyl)imidazo[1,2-a]pyridine-6-carboxamide] | – | – | – | 96 | 95 | < 50 |
| 10 to 25 | Cc1ccc(OCC2CC(CNC(=O)c3ccc4nccn4c3)=NO2)c(-c2ccc(F)nc2)n1 (single isomer, unassigned) [Example 12b, N-((5-(((6′-fluoro-6-methyl-[2,3′-bipyridin]-3-yl)oxy)methyl)-4,5-dihydroisoxazol-3-yl)methyl)imidazo[1,2-a]pyridine-6-carboxamide] | 100 | 100 | < 50 | – | – | – |
| 10 to 25 | Cc1cnc(-c2ccc(F)nc2)c(OCC2CC(CNC(=O)c3ccc4nccn4c3)=NO2)c1 (single isomer, unassigned) [Example 11b, N-((5-(((6′-fluoro-5-methyl-[2,3′-bipyridin]-3-yl)oxy)methyl)-4,5-dihydroisoxazol-3-yl)methyl)imidazo[1,2-a]pyridine-6-carboxamide] | 100 | 98 | < 50 | – | – | – |
| > 25 | O=C(NCC1=NOC(COc2cc(Cl)cnc2-c2cccnc2)C1)c1ccc2nccn2c1 (single isomer, unassigned) [Example 13a, N-((5-(((5-chloro-[2,3′-bipyridin]-3-yl)oxy)methyl)-4,5-dihydroisoxazol-3-yl)methyl)imidazo[1,2-a]pyridine-6-carboxamide] | 20 | – | > 250 | – | 93 | – |

The next lines start with the compound.

| Structure (SMILES) | IC50 [1] [nM] | Cell cytotoxicity assay (% Inhibition at 1 μM) (MiaPaCa-2 cells) [%] | Cell cytotoxicity assay (% Inhibition at 10 μM) (MiaPaCa-2 cells) [%] | IC50 (MiaPaCa-2 cells) [nM] | inhibition at 1 µM (MiaPaCa-2 cells; Homo sapiens, MIA PaCa-2, 72 h) [%] | inhibition at 10 µM (MiaPaCa-2 cells; Homo sapiens, MIA PaCa-2, 72 h) [%] | IC50 (MiaPaCa-2 cells; Homo sapiens, MIA PaCa-2, 72 h) [nM] |
| --- | --- | --- | --- | --- | --- | --- | --- |
| Cn1cc(-c2ncccc2OCC2CC(CNC(=O)c3ccc4nccn4c3)=NO2)cn1 (racemic) [Example 5, N-((5-(((2-(1-methyl-1H-pyrazol-4-yl)pyridin-3-yl)oxy)methyl)-4,5-dihydroisoxazol-3-yl)methyl)imidazo[1,2-a]pyridine-6-carboxamide] | < 10 | – | – | – | 47 | 95 | 50 to 250 |
| O=C(NCC1=NOC(COc2cccnc2-c2ccc(F)nc2)C1)c1ccc2nccn2c1 (racemic) [Example 4, N-((5-(((6′-fluoro-[2,3′-bipyridin]-3-yl)oxy)methyl)-4,5-dihydroisoxazol-3-yl)methyl)imidazo[1,2-a]pyridine-6-carboxamide] | < 10 | – | – | – | 96 | 96 | < 50 |
| O=C(NCC1=NOC(COc2cccnc2-c2ccc(F)nc2)C1)c1ccc2nccn2c1 (single isomer, unassigned) [Example 4b, N-((5-(((6′-fluoro-[2,3′-bipyridin]-3-yl)oxy)methyl)-4,5-dihydroisoxazol-3-yl)methyl)imidazo[1,2-a]pyridine-6-carboxamide] | < 10 | 95 | 94 | < 50 | – | – | – |
| CNC(=O)c1ccc(-c2ncccc2OCC2CC(CNC(=O)c3ccc4nccn4c3)=NO2)cc1F (racemic) [Example 6, N-((5-(((2-(3-fluoro-4-(methylcarbamoyl)phenyl)pyridin-3-yl)oxy)methyl)-4,5-dihydroisoxazol-3-yl)methyl)imidazo[1,2-a]pyridine-6-carboxamide] | > 25 | – | – | – | 15 | 80 | > 250 |
| Cc1cnc(-c2ccc(F)nc2)c(OCC2CC(CNC(=O)c3ccc4nccn4c3)=NO2)c1 (racemic) [Example 11, N-((5-(((6′-fluoro-5-methyl-[2,3′-bipyridin]-3-yl)oxy)methyl)-4,5-dihydroisoxazol-3-yl)methyl)imidazo[1,2-a]pyridine-6-carboxamide] | 10 to 25 | – | – | – | 96 | 95 | < 50 |
| O=C(NCC1=NOC(COc2cccnc2-c2ccc(Cl)nc2)C1)c1ccc2nccn2c1 (single isomer, unassigned) [Example 8b, N-((5-(((6′-chloro-[2,3′-bipyridin]-3-yl)oxy)methyl)-4,5-dihydroisoxazol-3-yl)methyl)imidazo[1,2-a]pyridine-6-carboxamide] | > 25 | 92 | 94 | 50 to 250 | – | – | – |
| O=C(NCC1=NOC(COc2cccnc2-c2ccc(F)nc2)C1)c1ccc2nccn2c1 (single isomer, unassigned) [Example 4a, N-((5-(((6′-fluoro-[2,3′-bipyridin]-3-yl)oxy)methyl)-4,5-dihydroisoxazol-3-yl)methyl)imidazo[1,2-a]pyridine-6-carboxamide] | < 10 | 8 | – | > 250 | – | 83 | – |
| O=C(NCC1=NOC(COc2ncccc2-c2ccc(F)nc2)C1)c1ccc2nccn2c1 (racemic) [Example 2, N-((5-(((6′-fluoro-[3,3′-bipyridin]-2-yl)oxy)methyl)-4,5-dihydroisoxazol-3-yl)methyl)-imidazo[1,2-a]pyridine-6-carboxamide] | < 10 | – | – | – | 95 | 97 | 50 to 250 |
| O=C(NCC1=NOC(COc2cccnc2-c2cccnc2)C1)c1ccc2nccn2c1 (racemic) [Example 7, N-((5-(([2,3′-bipyridin]-3-yloxy)methyl)-4,5-dihydroisoxazol-3-yl)methyl)-imidazo[1,2-a]pyridine-6-carboxamide] | 10 to 25 | – | – | – | 90 | 90 | 50 to 250 |
